According to patent publication US6763607B2, “Method for making homogeneous spray-dried solid amorphous drug dispersions utilizing modified spray-drying apparatus” (Pfizer Inc., priority 2002, dated 2004):

Test: in vitro dissolution test (concentration enhancement) in PBS, microcentrifuge method
Assay type: physicochemical
Details: PBS pH 6.5, 37° C.
Experimental: For this test, samples containing 7.2 mg of Example 1 were added to microcentrifuge tubes, in duplicate. The tubes were placed in a 37° C. temperature-controlled chamber, and 1.8 mL PBS at pH 6.5 and 290 mOsm/kg was added. The samples were quickly mixed using a vortex mixer for about 60 seconds. The samples were centrifuged at 13,000 G at 37° C. for 1 minute. […] The contents of the tubes were mixed on the vortex mixer and allowed to stand undisturbed at 37° C. until the next sample was taken. […] Control 1 and crystalline Drug 1 were tested using the same procedure. The concentration of drug obtained in these samples were used to determine the values of the maximum concentration of drug in the first ninety minutes (Cmax90) and the area under the curve of drug concentration versus time in the first ninety minutes (AUC90). […] The physical properties of the dispersions of Example 3, Control C2 and crystalline Drug 2 alone were determined as Example 1 with the following exceptions. […] Samples were analyzed by HPLC, with absorbance at 297 nm (Hewlett Packard 1100 HPLC, Zorbax SB C18 column, 35% acetonitrile/65% H2O).

[1] = Drug 2, 2000 μg/mL if all of the drug had dissolved

SMILES	AUC90 [1]	Cmax90 [1] [µg/mL]	AUC90 (Drug 1, area under drug concentration versus time curve in the first ninety minutes) [µg·min/mL]	Cmax90 (Drug 1, maximum concentration of drug in the first ninety minutes) [µg/mL]	Drug 1 Concentration (supernatant after centrifugation, time 0 min) [µg/mL]	Drug 1 AUC (time 0 min) [min-μg/ml]	Drug 1 AUC (time 4 min) [min-μg/ml]	Drug 1 Concentration (time 4 min) [µg/mL]	Drug 1 AUC (time 10 min) [min-μg/ml]	Drug 1 Concentration (time 10 min) [µg/mL]	Drug 1 AUC (time 20 min) [min-μg/ml]	Drug 1 Concentration (time 20 min) [µg/mL]	Drug 1 AUC (time 40 min) [min-μg/ml]	Drug 1 Concentration (time 40 min) [µg/mL]	Drug 1 AUC (time 90 min) [min-μg/ml]	Drug 1 Concentration (time 90 min) [µg/mL]	Drug 1 AUC (time 1200 min)	Drug 1 Concentration (time 1200 min) [µg/mL]
O=C(N[C@@H](Cc1ccccc1)[C@@H](O)C(=O)N1C[C@@H](O)[C@@H](O)C1)c1cc2cc(Cl)ccc2[nH]1 [Crystalline Drug 2, 5-chloro-1H-indole-2-carboxylic acid [(1S)-benzyl-(2R)-hydroxy-3-((3R,4S)-dihydroxy-pyrrolidin-1-yl-)-3-oxypropyl]amide]	12,800 min*μg/mL	149																
CCOC(=O)N1c2ccc(C(F)(F)F)cc2C(N(Cc2cc(C(F)(F)F)cc(C(F)(F)F)c2)C(=O)OC)CC1CC (stereo not drawn) [Crystalline Drug 1, 4-[(3,5-bis-trifluoromethyl-benzyl)-methoxycarbonyl-amino]-2-ethyl-6-trifluoromethyl-3,4-dihydro-2H-quinoline-1-carboxylic acid ethyl ester]			<88	<1	0	0	<2	<1	<8	<1	<18	<1	<38	<1	<88	<1	<1,200 min-μg/ml	<1
